The results in this text go back to patent US9453000B2, “Polycyclic compound” (EISAI R&D MANAGEMENT CO., LTD., priority 2007, dated 2016).

This assay has as its system Aβ42 production in rat primary neuronal culture. In words: Quantification of Aβ peptide in culture of neurons from rat fetus brain (Aβ ELISA). The settings on record: Primary cortical neuron, 72 h, rat primary cortical neurons (embryonic day 18 Wistar), three days after addition of the compound, Aβx-42 ELISA of medium, read-out: Aβ42 production reducing effect IC50. Format: cell-based. Here is the method: Quantification of Aβ Peptide in Culture of Neurons from Rat Fetus Brain
(1) Rat Primary Neuronal Culture
Primary neuronal cultures were prepared from the cerebral cortex of embryonic day 18 Wistar rats (Charles River Japan, Yokohama, Japan). Specifically, the embryos were aseptically removed from pregnant rats under ether anesthesia. The brain was isolated from the embryo and immersed in an ice-cold L-15 medium (Invitrogen Corp. Cat #11415-064, Carlsbad, Calif., USA, or SIGMA L1518, for example). The cerebral cortex was collected from the isolated brain under a stereoscopic microscope. The cerebral cortex fragments collected were enzymatically treated in an enzyme solution containing 0.25% trypsin (Invitrogen Corp. Cat #15050-065, Carlsbad, Calif., USA) and 0.01% DNase (Sigma D5025, St. Louis, Mo., USA) at 37° C. for 30 minutes to disperse the cells. Here, the enzymatic reaction was stopped by adding inactivated horse serum to the solution. The enzymatically treated solution was centrifuged at 1,500 rpm for five minutes to remove the supernatant. 5 to 10 ml of a medium was added to the resulting cell mass. Neurobasal medium (Invitrogen Corp. Cat #21103-049, Carlsbad, Calif., USA) supplemented with 2% B27 supplement (Invitrogen Corp. Cat #17504-044, Carlsbad, Calif., USA), 25 μM 2-mercaptoethanol (2-ME, WAKO Cat #139-06861, Osaka, Japan), 0.5 mM L-glutamine (Invitrogen Corp. Cat #25030-081, Carlsbad, Calif., USA), and Antibiotics-Antimycotics (Invitrogen Corp. Cat #15240-062, Carlsbad, Calif., USA) was used as the medium (Neurobasal/B27/2-ME). However, the above Neurobasal medium not supplemented with 2-ME (Neurobasal/B27) was used for the assay. The cells were redispersed by mild pipetting of the cell mass to which the medium was added. The cell dispersion was filtered through a 40-μm nylon mesh (Cell Strainer, Cat #35-2340, Becton Dickinson Labware, Franklin Lakes, N.J., USA) to remove the remaining cell mass, and thus a neuronal cell suspension was obtained. The neuronal cell suspension was diluted with the medium and then plated in a volume of 100 μl/well at an initial cell density of 5×10^5 cells/cm^2 in a 96-well polystyrene culture plate pre-coated with poly-L or D-lysine (Falcon Cat #35-3075, Becton Dickinson Labware, Franklin Lakes, N.J., USA coated with poly-L-lysine using the method shown below, or BIOCOAT™ cell environments Poly-D-lysine cell ware 96-well plate, Cat #35-6461, Becton Dickinson Labware, Franklin Lakes, N.J., USA). Poly-L-lysine coating was carried out as follows. 100 μg/ml of a poly-L-lysine (SIGMA P2636, St. Louis, Mo., USA) solution was aseptically prepared with a 0.15 M borate buffer (pH 8.5). 100 μl/well of the solution was added to the 96-well polystyrene culture plate and incubated at room temperature for one or more hours or at 4° C. overnight or longer. The coated 96-well polystyrene culture plate was washed with sterile water four or more times, and then dried or rinsed with, for example, sterile PBS or medium, and used for cell plating. The plated cells were cultured in the culture plate at 37° C. in 5% CO2-95% air for one day. Then, the total amount of the medium was replaced with a fresh Neurobasal™/B27/2-ME medium, and then the cells were cultured for further three days.
The drug was added to the culture plate on Day 4 of culture as follows. The total amount of the medium was removed from the wells, and 180 μl/well of Neurobasal medium not containing 2-ME and containing 2% B-27 (Neurobasal/B27) was added thereto. A solution of the test compound in dimethyl sulfoxide (hereinafter abbreviated as DMSO) was diluted with Neurobasal/B27 at 10-fold of the final concentration. 20 μl/well of the dilution was added to and sufficiently mixed with the medium. The final DMSO concentration was 1% or less. Only DMSO was added to the control group.
The cells were cultured for three days after addition of the compound, and the total amount of the medium was collected. […]
(ELISA stands for enzyme-linked immunosorbent assay.)
By IC50 is commonly meant the point on the concentration scale where inhibition reaches its midpoint. As to `COc1cc(/C=C/c2nc3n(n2)CCCC3(O)c2ccc(C(C)C)cc2)ccc1-n1cnc(C)c1` (single isomer, unassigned) [Example 55, (−)-8-(4-isopropylphenyl)-2-{(E)-2-[3-methoxy-4-(4-methyl-1H-imidazol-1-yl)phenyl]vinyl}-5,6,7,8-tetrahydro[1,2,4]triazolo[1,5-a]pyridin-8-ol], the half-inhibitory concentration (IC50) is 28 nM.

`COc1cc(/C=C/c2nc3n(n2)CCC[C@]3(O)c2ccccc2F)ccc1-n1cnc(C)c1` (single isomer, unassigned) [Example 59, (−)-8-(2-fluorophenyl)-2-{(E)-2-[3-methoxy-4-(4-methyl-1H-imidazol-1-yl)phenyl]vinyl}-5,6,7,8-tetrahydro-[1,2,4]triazolo[1,5-a]pyridin-8-ol]: the IC50 was 45 nM.

Take `COc1cc(/C=C/c2nc3n(n2)CCCC3C2CCCN2Cc2ccccc2)ccc1-n1cnc(C)c1` (single isomer, unassigned) [Example 133, 8-(1-benzylpyrrolidin-2-yl)-2-{(E)-2-[3-methoxy-4-(4-methyl-1H-imidazol-1-yl)phenyl]vinyl}-5,6,7,8-tetrahydro[1,2,4]triazolo[1,5-a]pyridine]: the IC50 was 65 nM.

As for `COc1nc(/C=C/c2nc3n(n2)CCCC3c2cc(F)c(F)c(F)c2)ccc1-n1cnc(C)c1` (single isomer, unassigned) [Example 169, (−)-2-{(E)-2-[6-methoxy-5-(4-methyl-1H-imidazol-1-yl)pyridin-2-yl]vinyl}-8-(3,4,5-trifluorophenyl)-5,6,7,8-tetrahydro-[1,2,4]triazolo[1,5-a]pyridine], the IC50 was determined as 22 nM.

With `COc1nc(/C=C/c2nc3n(n2)CCC[C@H]3c2ccc(F)c(F)c2)ccc1-n1cnc(C)c1` (single isomer, unassigned) [Example 171, (−)-8-(3,4-difluorophenyl)-2-{(E)-2-[6-methoxy-5-(4-methyl-1H-imidazol-1-yl)pyridin-2-yl]vinyl}-5,6,7,8-tetrahydro-[1,2,4]triazolo[1,5-a]pyridine], the IC50 was 17 nM.

As to `COc1nc(/C=C/c2nc3n(n2)CCC[C@H]3c2ccc(F)cc2)ccc1-n1cnc(C)c1` (single isomer, unassigned) [Example 173, (−)-8-(4-fluorophenyl)-2-{(E)-2-[6-methoxy-5-(4-methyl-1H-imidazol-1-yl)pyridin-2-yl]vinyl}-5,6,7,8-tetrahydro-[1,2,4]triazolo[1,5-a]pyridine], the IC50 came out at 37 nM.

As to `COc1nc(/C=C/c2nc3n(n2)CCCC3c2cccc(F)c2)ccc1-n1cnc(C)c1` (single isomer, unassigned) [Example 189, (−)-8-(3-fluorophenyl)-2-{(E)-2-[6-methoxy-5-(4-methyl-1H-imidazol-1-yl)pyridin-2-yl]vinyl}-5,6,7,8-tetrahydro[1,2,4]triazolo[1,5-a]pyridine], the IC50 turned out to be 43 nM.

`COc1nc(/C=C/c2nc3n(n2)CCCC3c2cccc3ccccc23)ccc1-n1cnc(C)c1` (single isomer, unassigned) [Example 199, (+)-2-{(E)-2-[6-methoxy-5-(4-methyl-1H-imidazol-1-yl)pyridin-2-yl]vinyl}-8-(naphthalen-1-yl)-5,6,7,8-tetrahydro-[1,2,4]triazolo[1,5-a]pyridine]: the IC50 was determined as 23 nM.

With `COc1cc(/C=C/c2nc3n(n2)CCC[C@H]3c2ccc(F)cc2)cnc1-n1cnc(C)c1` (single isomer, unassigned) [Example 212, (−)-8-(4-fluorophenyl)-2-{(E)-2-[5-methoxy-6-(4-methyl-1H-imidazol-1-yl)pyridin-3-yl]vinyl}-5,6,7,8-tetrahydro-[1,2,4]triazolo[1,5-a]pyridine], the IC50 was determined as 100 nM.

Consider `COc1cc(/C=C/c2nc3n(n2)CCC[C@H]3c2ccc(F)c(F)c2)cnc1-n1cnc(C)c1` (single isomer, unassigned) [Example 218, (−)-8-(3,4-difluorophenyl)-2-{(E)-2-[5-methoxy-6-(4-methyl-1H-imidazol-1-yl)pyridin-3-yl]vinyl}-5,6,7,8-tetrahydro-[1,2,4]triazolo[1,5-a]pyridine], for which the IC50 was found to be 69 nM.
